Experimental findings from patent publication US11634418B2, “Amino acid compounds and methods of use” (Pliant Therapeutics, Inc., priority 2016, dated 2023) are described below.

In general, IC50 refers to the concentration that gives 50% inhibition.

Sequence of recombinant human integrin αvβ6 (P06756 31-992): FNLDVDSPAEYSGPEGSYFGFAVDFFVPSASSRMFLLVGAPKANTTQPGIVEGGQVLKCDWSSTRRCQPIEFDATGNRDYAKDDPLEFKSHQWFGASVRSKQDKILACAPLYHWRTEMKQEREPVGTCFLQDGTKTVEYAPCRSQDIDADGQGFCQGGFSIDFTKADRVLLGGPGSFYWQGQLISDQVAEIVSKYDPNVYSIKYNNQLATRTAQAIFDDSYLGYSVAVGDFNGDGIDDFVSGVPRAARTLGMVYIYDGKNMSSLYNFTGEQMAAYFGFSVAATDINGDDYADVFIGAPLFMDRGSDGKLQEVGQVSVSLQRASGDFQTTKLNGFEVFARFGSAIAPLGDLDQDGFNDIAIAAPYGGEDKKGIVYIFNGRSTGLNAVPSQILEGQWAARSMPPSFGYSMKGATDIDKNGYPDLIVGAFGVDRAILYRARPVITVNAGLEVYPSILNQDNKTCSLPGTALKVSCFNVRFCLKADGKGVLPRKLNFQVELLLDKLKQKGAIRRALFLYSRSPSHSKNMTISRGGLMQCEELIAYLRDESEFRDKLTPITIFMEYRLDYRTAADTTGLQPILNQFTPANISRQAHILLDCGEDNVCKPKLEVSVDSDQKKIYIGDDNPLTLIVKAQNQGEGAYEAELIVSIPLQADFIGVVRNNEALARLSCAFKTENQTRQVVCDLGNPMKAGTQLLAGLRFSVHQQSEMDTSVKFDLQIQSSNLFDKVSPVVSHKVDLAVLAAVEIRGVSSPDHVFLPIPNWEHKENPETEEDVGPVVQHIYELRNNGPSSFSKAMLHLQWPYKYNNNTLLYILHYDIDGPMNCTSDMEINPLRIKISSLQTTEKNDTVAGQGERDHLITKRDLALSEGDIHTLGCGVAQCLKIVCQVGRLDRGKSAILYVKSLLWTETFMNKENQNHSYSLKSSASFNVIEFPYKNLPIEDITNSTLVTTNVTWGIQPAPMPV
Sequence of recombinant human integrin αvβ6 (P18564 22-707): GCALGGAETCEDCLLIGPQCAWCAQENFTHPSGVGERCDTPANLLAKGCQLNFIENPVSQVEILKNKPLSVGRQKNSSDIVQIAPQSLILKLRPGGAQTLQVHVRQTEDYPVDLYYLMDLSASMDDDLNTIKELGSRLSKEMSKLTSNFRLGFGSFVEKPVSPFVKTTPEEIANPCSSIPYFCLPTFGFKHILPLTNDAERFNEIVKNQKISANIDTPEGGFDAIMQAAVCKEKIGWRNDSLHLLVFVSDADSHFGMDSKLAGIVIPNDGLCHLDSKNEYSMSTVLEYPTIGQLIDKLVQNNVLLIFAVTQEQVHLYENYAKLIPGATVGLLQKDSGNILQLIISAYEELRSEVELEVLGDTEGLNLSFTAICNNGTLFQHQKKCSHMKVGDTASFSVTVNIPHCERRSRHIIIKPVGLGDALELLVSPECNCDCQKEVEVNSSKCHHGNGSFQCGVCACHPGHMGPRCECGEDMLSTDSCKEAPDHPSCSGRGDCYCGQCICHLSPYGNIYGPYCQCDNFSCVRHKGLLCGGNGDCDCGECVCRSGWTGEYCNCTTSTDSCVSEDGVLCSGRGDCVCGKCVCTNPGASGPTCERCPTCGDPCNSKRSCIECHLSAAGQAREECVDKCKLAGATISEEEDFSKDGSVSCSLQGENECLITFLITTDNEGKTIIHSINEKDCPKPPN

This experiment concerns the target recombinant human integrin αvβ6 (Homo sapiens (Human), UniProt P06756+P18564). The experiment in a line: Solid Phase Integrin αvβ6 Binding Assay. Conditions: inhibition of recombinant TGFβ1 LAP binding to coated integrin; IC50 given as range. As for the experimental part:
Microplates were coated with recombinant human integrin αvβ6 (2 ug/ml) in PBS (100 ul/well 25° C. overnight). The coating solution was removed, washed with wash buffer (0.05% Tween 20; 0.5 mM MnCl2; in 1×TBS). Plate was blocked with 200 ul/well of Block Buffer (1% BSA; 5% sucrose; 0.5 mM MnCl2; in 1×TBS) at 37° C. for 2 h. Dilutions of testing compounds and recombinant TGFβ1 LAP (0.67 ug/ml) in binding buffer (0.05% BSA; 2.5% sucrose; 0.5 mM MnCl2; in 1×TBS) were added. The plate was incubated for 2 hours at 25° C., washed, and incubated for 1 hour with Biotin-Anti-hLAP. Bound antibody was detected by peroxidase-conjugated streptavidin. The IC50 values for testing compounds were calculated by a four-parameter logistic regression.
Regarding `Cc1cc(C)n(-c2cccc(C(=O)N[C@@H](CCN3CC(CCc4ccc5c(n4)NCCC5)CC(F)(F)C3)C(=O)O)c2)n1` (stereo partly shown) [Compound 42], the IC50 was 250 to 4000 nM.

Regarding `O=C(O)[C@H](CCN1CC(CCc2ccc3c(n2)NCCC3)C1)NC(=O)[C@@H]1CCCN1Cc1ccccc1` [Compound 143], the IC50 is more than 1000 nM.

With `CC(C)(O)CN1CCCC1C(=O)N[C@@H](CCN1CC(OCCc2ccc3c(n2)NCCC3)C1)C(=O)O` (stereo partly shown) [Compound 134], the IC50 is 250 to 1000 nM.

Take `O=C(N[C@@H](CCN1CCC[C@@](F)(CCc2ccc3c(n2)NCCC3)C1)C(=O)O)C1CCC(F)(F)CC1` [Compound 107]: the IC50 is 50 nM.

`NCCCc1ccc(CCC2CC3CCC2N3CC[C@H](NC(=O)c2cc(F)cc(C(F)(F)F)c2)C(=O)O)nc1` (stereo partly shown) [Compound 141]: the IC50 was less than 50 nM.

With `Cn1ncc2ccc(C(=O)N[C@@H](CCN3CCC[C@@](F)(CCc4ccc5c(n4)NCCC5)C3)C(=O)O)cc21` [Compound 106], the IC50 was 50 nM.

As to `O=C(N[C@@H](CCN1CCC(NCc2ccc3c(n2)NCCC3)CC1)C(=O)O)C1CCC(F)(F)CC1` [Compound 34], the IC50 is more than 1000 nM.
